# Experimental data as given in ChEMBL document CHEMBL5550221, “Dual 5-HT2A and 5-HT2C Receptor Inverse Agonist That Affords In Vivo Antipsychotic Efficacy with Minimal hERG Inhibition for the Treatment of Dementia-Related Psychosis” (J Med Chem, 2024).
# Calls of active or inactive are those of the source. The calls are words filed in the database; no cut-off is given here.
# Columns and labels:
# [1] = in vitro; details: rat, liver microsomes
# Description: Metabolic stability in rat liver microsomes assessed as compound remaining measured after 30 mins
# [2] = Dissociation constant, pKa of the compound in DMSO solution by capillary electrophoresis; type: physicochemical
# [3] = in vitro; details: human, liver microsomes
# Description: Metabolic stability in human liver microsomes assessed as compound remaining measured after 30 mins
# [4] = physchem; details: 1-octanol/phosphate buffer, pH 7.4
# [5] = system: Rattus norvegicus; test: Induction of dialysate dopamine level in male Wistar rat prefrontal cortex at 30 mg/kg, sc measured upto 120 mins after treatment by microdialysis study; type: functional, organism-based
# [6] = system: Rattus norvegicus; test: In vivo receptor occupancy at 5-HT2A receptor in sc dosed Wistar rat brain in presence of MDL-100907 non-radiolabeled tracer measured pretreated for 45 mins before MDL-100907 challenge measured after 15 mins; type: functional, organism-based; details: dose 0.1-30 mg/kg, time 60.0 min
# [7] = system: Rattus norvegicus; test: Induction of dialysate dopamine level in male Wistar rat prefrontal cortex at 10 mg/kg, sc measured upto 120 mins after treatment by microdialysis study; type: functional, organism-based
# [8] = system: Rattus norvegicus; test: Induction of dialysate dopamine level in male Wistar rat prefrontal cortex at 3 mg/kg, sc measured upto 120 mins after treatment by microdialysis study; type: functional, organism-based
# [9] = system: Rattus norvegicus; test: Antipsychotic efficacy against MK-801-induced locomotor hyperactivity rat model assessed as reduction in locomotor activity at 30 mg/kg, sc pretreated for 45 mins before MK-801 challenge measured after 15 mins; type: functional, organism-based; details: time 60.0 min
# [10] = system: Rattus norvegicus; test: Induction of dialysate dopamine level in male Wistar rat prefrontal cortex at 3 to 10 mg/kg, sc measured upto 120 mins after treatment by microdialysis study; type: functional, organism-based; details: dose 3-10 mg/kg
remaining at 0.5 h [1],pKa [2],remaining at 0.5 h [3],logD [4],SMILES,Activity [5],Activity [6],Activity [7],Activity [8],Activity [9],Activity [10]
48%,8.7,48%,3,CC(C)COc1ccc(CNC(=O)N(Cc2ccc(F)cc2)[C@H]2CCN(C)CC23CC3)cc1,,,,,,
47%,,88%,1.7,CC(C)COc1ccc(CNC(=O)N(Cc2ccn(C)n2)[C@H]2CCN(C)CC23CC3)cc1,,,,,,
6.1%,6.2,7.9%,4.9,CC(C)COc1ccc(CNC(=O)N(Cc2ccc(F)cc2)[C@H]2CCN(C)C[C@@H]2F)cc1,,,,,,
90%,8.4,89%,2.8,CC(C)COc1ccc(CNC(=O)N(Cc2ccc(F)cc2)C2CCN(C)CC2)cc1 [PIMAVANSERIN],Active,Dose-Dependent Effect,inactive,inactive,Active,
64%,,68%,2.5,CC(C)COc1ccc(CNC(=O)N(Cc2ccc(F)cn2)[C@H]2CCN(C)CC23CC3)cc1,,,,,,
27%,7.2,34%,4,CC(C)COc1ccc(CNC(=O)N(Cc2ccc(F)cc2)[C@H]2CCN(C)C[C@H]2F)cc1,,,,,,
,,,,Cc1cc2c(cc1Cl)N(C(=O)Nc1ccc(Oc3cccnc3C)nc1)CC2,,,,,,Active
92%,,102%,1.2,CCCOc1ccc(CNC(=O)N(Cc2ccn(C)n2)C2CCN(C)CC2)cc1,,,,,,
